Laboratory results from patent US11331304B2, “YAP1 inhibitors and methods” (The Jackson Laboratory, priority 2016, dated 2022).
Entries after “also recorded” stand apart in the source; their conditions may differ. Blank lines part the entries; values can stand above or below the compound they belong to.

Legend:
[1] = Solubility of verteporfin derivative compounds in water and buffer (pH = 2); format: physicochemical; details: for Buffer (pH = 2) result: phosphate buffer pH = 2; for Water result: at the amount per volume in mg/mL
[2] = test system: mouse medulloblastoma cells; experiment: IC50 / viability (Cell Titer Blue) in mouse medulloblastoma tumorsphere cell line; format: cell-based; details: FIGS. 9-11
Description: Uptake was calculated by measuring relative fluorescence in two different primary medulloblastoma cell lines. Absorbance measurements were normalized to t=0 with drugs in the well, the drugs were washed out 30 minutes later, and absorbance was measured again. FIG. 9B) IC50 in a mouse medulloblastoma tumorsphere cell line treated with verteporfin or a verteporfin derivative compound (T10, T11, T13, T14, or T15). DMSO was used as a control.
(§1) Primary cells from spontaneous mouse medulloblastoma ([…];p53^−/− or FSMO;GFAPcre) and MED311 PDX model were isolated and cultured in serum-free stem cell medium (DMEM/F12, B27, pen/strep, bFGF9 10 nanograms per milliliter (ng/mL)), and EGF (20 ng/mL). Number of self-renewing stem cells in vitro were measured by plating single cells at a clonal density (<1 cell/μL) and counting spheres >100 μM 7 days later. To establish IC50 values, 3000 mouse medulloblastoma cells were plated in 96 wells and treated varying concentrations of verteporfin and new derivatives were synthesized, in triplicate, and viability was measured using Cell Titer Blue assay (Promega, Madison, Wis.) 3 days after drug treatment.

[3] = test system: Ptch;p53 and Smo-M2;GFAP-cre medulloblastoma cells; experiment: Self-renewal (sphere formation at clonal density) of SHH medulloblastoma tumorspheres; format: cell-based, mouse; details: for suppression of self-renewal: Ptch;p53 and Smo-M2;GFAP-cre cells in vitro, n=3; for self-renewal (in words): in vitro
Description: (§2) To test YAP function in human cells, primary cells from a SHH subgroup PDX model (MED311) were isolated and treated with VP.
as §1

[4] = test system: Smo-M2;GFAP-cre medulloblastoma tumor slices; experiment: Tumor slice culture ex vivo, tissue viability by Cell Titer Blue; format: cell-based, mouse
Description: Fresh tumor tissues were dissected and cut into 250 micrometer (μm) thick slices and cultured at air-media interface in serum-free medium (DMEM/F12, B27, pen/strep) for 8-12 days. Tissue viability was measured by Cell Titer Blue assay (Promega, Madison, Wis.) at 2-4 days intervals. DMSO or drugs were added after each viability reading.

[5] = test system: MED311 human patient-derived xenograft (PDX) SHH medulloblastoma cells; experiment: VP treatment of primary cells from SHH subgroup PDX model; format: cell-based
Description: as §2, §1

SMO-M2;GFAP-cre mice = experiment: Kaplan-Meier survival of SMO-M2;GFAP-cre mice, intraperitoneal injection; format: in vivo, mouse; details: IP injection, versus vehicle (DMSO), N=8 each group
YAP:TEAD = YAP:TEAD (Homo sapiens, UniProt P46937); details: Liu-Chittenden et al. 2012; cited from earlier work
Chain of YAP:TEAD (P46937 whole entry): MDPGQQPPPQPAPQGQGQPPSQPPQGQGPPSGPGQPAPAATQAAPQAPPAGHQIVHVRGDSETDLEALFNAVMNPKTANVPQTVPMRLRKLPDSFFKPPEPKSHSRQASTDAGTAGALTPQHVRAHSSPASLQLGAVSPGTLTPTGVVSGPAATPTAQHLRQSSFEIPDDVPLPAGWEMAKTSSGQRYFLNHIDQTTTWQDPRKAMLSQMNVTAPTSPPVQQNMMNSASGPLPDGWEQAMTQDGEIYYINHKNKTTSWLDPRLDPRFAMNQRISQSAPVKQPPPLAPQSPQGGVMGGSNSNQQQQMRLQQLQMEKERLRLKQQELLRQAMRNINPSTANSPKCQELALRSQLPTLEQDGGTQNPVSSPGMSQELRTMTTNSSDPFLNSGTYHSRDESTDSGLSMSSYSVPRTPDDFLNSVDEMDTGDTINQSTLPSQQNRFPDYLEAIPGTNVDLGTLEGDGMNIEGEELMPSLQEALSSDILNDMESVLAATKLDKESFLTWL

- solubility compared to VP [1]: decreased solubility
Compound: C=Cc1c(C)c2cc3nc(cc4[nH]c(cc5nc(cc1[nH]2)C(C)=C5CCC(=O)OCCOCCOCCOC)c(CCC(=O)OCCOCCOCCOC)c4C)[C@@]1(C)C3=CC=C(C(=O)OC)[C@H]1C(=O)OC [Compound T9, 2-[2-(2-methoxyethoxy)ethoxy]ethyl 3-[(23 S,24R)-14-ethenyl-5-[3-[2-[2-(2-methoxyethoxy)ethoxy]ethoxy]-3-oxo-propyl]-22,23-bis(methoxycarbonyl)-4,10,15,24-tetramethyl-25,26,27,28-tetraazahexacyclo[16.6.1.13,6.18,11.113,16.019,24]octacosa-1,3,5,7,9,11(27),12,14,16,18(25), 19,21-dodecaen-9-yl]propanoate]
- activity / potency compared to VP [2]: decreased solubility and activity

- Buffer (pH = 2) result [1]: insoluble
- Water result [1]: insoluble
Compound: C=Cc1c(C)c2cc3nc(cc4[nH]c(cc5nc(cc1[nH]2)C(C)=C5CCC(=O)OCCOCCOCCOCCOCCOCCOCCOC)c(CCC(=O)OC)c4C)[C@@]1(C)C3=CC=C(C(=O)OC)[C@H]1C(=O)OC [Compound T10, Methyl 3-[(23S,24R)-14-ethenyl-9-[3-[2-[2-[2-[2-[2-[2-(2-methoxyethoxy)ethoxy]ethoxy]ethoxy]ethoxy]ethoxy]ethoxy]-3-oxo-propyl]-22,23-bis(methoxycarbonyl)-4,10,15,24-tetramethyl-25,26,27,28-tetraazahexacyclo[16.6.1.13,6.18,11.113,16.019,24]octacosa-1,3,5,7,9,11(27),12,14,16,18(25), 19,21-dodecaen-5-yl]propanoate]

The remaining lines, values behind:

Compound: C=Cc1c(C)c2cc3nc(cc4[nH]c(cc5nc(cc1[nH]2)C(C)=C5CCC(=O)NCCN(C)C)c(CCC(=O)NCCN(C)C)c4C)[C@@]1(C)C3=CC=C(C(=O)OC)[C@H]1C(=O)OC [Compound T13, N-[2-(dimethylamino)ethyl]-3-[(23 S,24R)-14-ethenyl-5-[3-[2-(dimethylamino)ethylamino]-3-oxo-propyl]-22,23-bis(methoxycarbonyl)-4,10,15,24-tetramethyl-25,26,27,28-tetraazahexacyclo[16.6.1.13,6.18,11.113,16.019,24]octacosa-1,3,5,7,9,11(27), 12,14,16,18(25), 19,21-dodecaen-9-yl]propanamide]
- solubility compared to VP [1]: more soluble
- activity / potency compared to VP [2]: more soluble and potent than VP

Compound: C=Cc1c(C)c2cc3nc(cc4[nH]c(cc5nc(cc1[nH]2)C(C)=C5CCC(=O)NCCCC[C@H](N)C(=O)O)c(CCC(=O)OC)c4C)[C@@]1(C)C3=CC=C(C(=O)OC)[C@H]1C(=O)OC [Compound T5, (2S)-2-amino-6-[3-[(23 S,24R)-14-ethenyl-5-(3-methoxy-3-oxopropyl)-22,23-bis(methoxycarbonyl)-4,10,15,24-tetramethyl-25,26,27,28-tetraazahexacyclo[16.6.1.13,6.18,11.113,16.019,24]octacosa-1,3,5,7,9,11(27),12,14,16,18(25), 19,21-dodecaen-9-yl]propanoylamino]hexanoic acid]
- Buffer (pH = 2) result [1]: soluble
- Water result [1]: soluble

Compound: C=Cc1c(C)c2cc3nc(cc4[nH]c(cc5nc(cc1[nH]2)C(C)=C5CCC(=O)N(C)CCN(C)C)c(CCC(=O)OC)c4C)[C@@]1(C)C3=CC=C(C(=O)OC)[C@H]1C(=O)OC [Compound T14, Methyl 3-[(23S,24R)-14-ethenyl-9-[3-[2-(dimethylamino)ethyl-methyl-amino]-3-oxo-propyl]-22,23-bis(methoxycarbonyl)-4,10,15,24-tetramethyl-25,26,27,28-tetraazahexacyclo[16.6.1.13,6.18,11.113,16.019,24]octacosa-1,3,5,7,9,11(27), 12,14,16,18(25), 19,21-dodecaen-5-yl]propanoate]
- Buffer (pH = 2) result [1]: soluble
- Water result [1]: insoluble

Compound: C=Cc1c(C)c2cc3nc(cc4[nH]c(cc5nc(cc1[nH]2)C(C)=C5CCC(=O)O)c(CCC(=O)OC)c4C)[C@@]1(C)C3=CC=C(C(=O)OC)[C@H]1C(=O)OC [Verteporfin, 3-[(23 S,24R)-14-ethenyl-5-(3-methoxy-3-oxopropyl)-22,23-bis(methoxycarbonyl)-4,10,15,24-tetramethyl-25,26,27,28-tetraazahexacyclo[16.6.1.13,6.18,11.113,16.019,24]octacosa-1,3,5,7,9,11(27),12,14,16,18(25), 19,21-dodecaen-9-yl]propanoic acid]
- solubility (in words) [1]: poor solubility
- Buffer (pH = 2) result [1]: insoluble
- Water result [1]: insoluble
- suppression of self-renewal ([3]; 0.1 μM): ~50%
- self-renewal (in words) ([3]; 100 nM): suppressed self-renewal
- self-renewal (in words) ([3]; 1 μM): completely suppressed self-renewal
- suppression of self-renewal [3]: 100%
- response of tumor tissue explants grown as intact slices [4]: significant response
- cell morphology ([5]; 24 hours post-VP treatment, listed as VP): significant morphology change; also recorded: morphological changes consistent with apoptosis
- proliferation ([5]; upon VP treatment): reduced proliferation
- survival (SMO-M2;GFAP-cre mice): increase survival
- YAP:TEAD binding (YAP:TEAD): inhibit YAP:TEAD binding

Compound: C=Cc1c(C)c2cc3nc(cc4[nH]c(cc5nc(cc1[nH]2)C(C)=C5CCC(=O)NCCCC[C@H](N)C(=O)O)c(CCC(=O)NCCCC[C@H](N)C(=O)O)c4C)[C@@]1(C)C3=CC=C(C(=O)OC)[C@H]1C(=O)OC [Compound T7, (2S)-2-amino-6-[3-[(23 S,24R)-14-ethenyl-5-[3-[[(5 S)-5-amino-5-carboxy-pentyl]amino]-3-oxo-propyl]-22,23-bis(methoxycarbonyl)-4,10,15,24-tetramethyl-25,26,27,28-tetraazahexacyclo[16.6.1.13,6.18,11.113,16.019,24]octacosa-1,3,5,7,9,11(27),12,14,16,18(25), 19,21-dodecaen-9-yl]propanoylamino]hexanoic acid]
- Buffer (pH = 2) result [1]: soluble
- Water result [1]: soluble

Compound: C=Cc1c(C)c2cc3nc(cc4[nH]c(cc5nc(cc1[nH]2)C(C)=C5CCC(=O)N(C)CCN(C)C)c(CCC(=O)N(C)CCN(C)C)c4C)[C@@]1(C)C3=CC=C(C(=O)OC)[C@H]1C(=O)OC [Compound T15, N-[2-(dimethylamino)ethyl]-3-[(23 S,24R)-14-ethenyl-5-[3-[2-(dimethylamino)ethyl-methyl-amino]-3-oxo-propyl]-22,23-bis(methoxycarbonyl)-4,10,15,24-tetramethyl-25,26,27,28-tetraazahexacyclo[16.6.1.13,6.18,11.113,16.019,24]octacosa-1,3,5,7,9,11(27), 12,14,16,18(25),19,21-dodecaen-9-yl]-N-methyl-propanamide]
- Buffer (pH = 2) result [1]: soluble
- Water result [1]: soluble
